Laboratory results reported in US10576125B2, “Methods for enhancing synaptogenesis and neuritogenesis” (HOUGH EAR INSTITUTE, priority 2016, dated 2020).

What was measured:
[1] = test system: murine spiral ganglion (SG) tissue explants; test: Neuritogenesis in murine spiral ganglion explants; format: cell-based, mouse; conditions: for neurite outgrowth induced by exogenous neurotrophic factor: at 10 μM (so in the source) relative to untreated controls, FIG. 24B, FIG. 26B
[2] = test system: IHC ribbon synapses in murine SGN-IHC co-culture; test: Kainic acid excitotoxic trauma in SGN-IHC co-culture; format: cell-based; conditions: for KA-induced shift of pre-synaptic densities from typical to apical distributions: quantitative evaluation
From the text: The previous findings were applied to a murine SGN-IHC co-culture model of excitotoxic trauma. In IHCs of undamaged co-cultures of auditory sensory epithelia (organs of Corti, OC) and associated spiral ganglion neurons (NC), most of the pre-synaptic C-terminal binding protein 2 (CtBP2)-immunoreactive puncta (small red dots) are located in a “typical,” cytoarchitectural position, located along the basal surface of the cell, below or surrounding the IHC nucleus (large red spheres). A marked shift from this typical CtBP2 basal immunoreactivity pattern to a more apical distribution pattern occurred after exposure to the excitotoxic glutamate analog, kainic acid (KA). […] The ability of HPN-07 to restore the structural integrity of ribbon synapses among IHCs following an excitotoxic trauma in this co-culture model is consistent with HPN-07 acting to promote synaptogenesis (i.e., re-innervation) in this context.
FIG. 6 summarizes a quantitative evaluation from a targeted comparison of the number and spatial distribution of ribbons among IHCs from untreated, BDNF-treated, or HPN-07-treated explants following excitotoxic exposure to KA. […] Each data point represents a composite of approximately ten independent measurements.

[3] = test system: PC12 cell line; test: NGF-induced neuritogenesis in PC12 cells; format: cell-based
Experimental: This NGF-induced neuritogenic response was apparently saturable at concentrations at and above 10 ng/mL in this context.
FIG. 4 depicts the percentage of PC12 cells with significant neurite outgrowth. The pattern observed here is similar to that observed for treatment-induced increases in average neurite length. Taken together, these evaluations support the interpretation that HPN-07 acts in concert with NGF to promote both de novo neurite outgrowth and changes in the stability or assembly kinetics of neurites in such a manner as to support increases in mean neurite length, both of which are desirable features for re-innervation of IHCs.

[4] = test system: noise-damaged chinchilla; test: Live animal study in noise-damaged chinchilla; format: in vivo
[5] = test system: PC12 cell line; conditions: cited from earlier work

Molecule: 2,4-disulfonyl α-phenyl tertiary butyl nitrone [HPN-07]
- potentiation of BDNF-induced neuritogenesis ([1]; BDNF 10 ng/mL + HPN-07 0.1 μM, 48 hours, serum-free medium, FIG. 2): potentiated neuritogenesis
- neurite outgrowth (number and length of neurites) from SG explants ([1]; HPN-07 alone vs untreated controls (NC), FIG. 1): induced marked neurite outgrowth
- concentration sufficient to induce a neuritogenic response ([1]; organotypic cultures of mouse spiral ganglion neurons): 100 µM
- number and extent of nerve fibers in addition to BDNF ([1]; with BDNF 10 ng/ml, FIG. 24): greatly increased the number and extent of nerve fibers
- NT-3 induced neuritogenesis ([1]; with NT-3 10 ng/ml, FIG. 26): enhanced
- neurite densities along the base of IHCs ([2]; SGN-HC co-cultures following KA): increased neurite densities along the base of IHCs
- number of total ribbons among IHCs ([2]; after KA, compared with BDNF, FIG. 6): greater number of total ribbons
- KA-induced apical shift of CtBP2 puncta and loss of PSD-95 co-labeling (IHC ribbon synapse integrity) ([2]; post-excitotoxic treatment, 10 μM, FIG. 5): reversed this pathologic shift
- KA-induced shift of pre-synaptic densities from typical to apical distributions ([2]; FIG. 6): reversed this pathologic change
- mean neurite lengths ([3]; 1 μM HPN-07 + 10 ng/mL NGF, 6 days, FIG. 3): markedly surpassed the maximum lengths achieved in the saturable NGF dose-escalation series
- NGF-mediated neuritogenesis (mean neurite length) ([3]; 1 μM HPN-07 + 1 and 5 ng/mL NGF, 6 days, FIG. 3): enhances
- percentage of PC12 cells bearing neurites ([3]; HPN-07 + escalating doses of NGF, FIG. 4): significantly enhanced NGF-induced neuritogenesis
- neurite length, HPN-07 alone ([3]; low concentrations, no NGF): did not increase neurite length
- functional recovery ([4]; long after the duration of treatment): progressive degree of functional recovery
- inner hair cell neurite populations ([4]; relative to untreated controls): significantly greater inner hair cell neurite populations

Molecule: CC(C)(C)[N+]([O-])=Cc1ccccc1 [PBN, alpha-phenyl N-tertiary-butyl nitrone]
- concentration required for inducing neuritogenesis in PC12 cells [5]: 10 mM

Molecule: NGF: Nerve growth factor
- concentrations at which the NGF-induced neuritogenic response is saturable ([3]; NGF alone): ≥ 10 ng/mL
- neurite elongation ([3]; NGF alone): induced neurite elongation in a dose-dependent manner

B1: NT-3: inherent neurotrophic factor in the inner ear, essential for development and survival of cochlear spiral ganglions (protein, UniProt P20783 139-257, looked up)
Neurotrophin-3: YAEHKSHRGEYSVCDSESLWVTDKSSAIDIRGHQVTVLGEIKTGNSPVKQYFYETRCKEARPVKNGCRGIDDKHWNSQCKTSQTYVRALTSENNKLVGWRWIRIDTSCVCALSRKIGRT
- neurite outgrowth induced by exogenous neurotrophic factor [1]: induced significant neurite outgrowth

B2: BDNF: Brain-derived neurotrophic factor, the canonical cochlear neuritogenic growth factor (protein, UniProt P23560 19-247, looked up)
Neurotrophic factor BDNF …: APMKEANIRGQGGLAYPGVRTHGTLESVNGPKAGSRGLTSLADTFEHVIEELLDEDQKVRPNEENNKDADLYTSRVMLSSQVPLEPPLLFLLEEYKNYLDAANMSMRVRRHSDPARRGELSVCDSISEWVTAADKKTAVDMSGGTVTVLEKVPVSKGQLKQYFYETKCNPMGYTKEGCRGIDKRHWNSQCRTTQSYVRALTMDSKKRIGWRFIRIDTSCVCTLTIKRGR
- neurite outgrowth induced by exogenous neurotrophic factor [1]: induced significant neurite outgrowth
- KA-induced shift of pre-synaptic densities from typical to apical distributions ([2]; FIG. 6): reversed this pathologic change
